Results on five compounds are retold here after patent publication US20220289765A1, “CRYSTAL OF CARCINOGENIC FUSED KINASE INHIBITOR AND APPLICATIONS THEREOF” (Simcere Pharmaceutical Co., Ltd., priority 2019, published 2022).

Where two headings read alike, the source gives them in different places.

The bioavailability is dose-corrected exposure relative to a reference, in per cent. For orientation: Tmax means the time at which the peak concentration occurs.

Data set [1] in a line: Cassette pharmacokinetic test in mice (plasma, brain, CSF). The class given is in vivo, male CD-1 mice. The protocol: The pharmacokinetic behaviors of the compounds of the present invention in mice were studied and the pharmacokinetic properties thereof were evaluated.
Data set [2] is described as follows: Pharmacokinetic test in mice. The note with it: mouse, plasma; PO (10 mL/kg [sic]) vs IV 3 mg/kg, male CD-1 mice; read-out: Bioavailability F %. The class given is in vivo. The protocol: The drug concentrations of the compounds in plasma at different time points were determined by LC/MS/MS method after single intravenous (IV) and intragastric (PO) administration of the compounds to 7-9 week old male CD-1 mice as the test animals. The pharmacokinetic behaviors of the compounds of the present invention in mice were studied and pharmacokinetic properties thereof were evaluated.
The compounds were prepared into clear solutions using 5% DMSO+10% solutol+85% water as a solvent for administration in IV (intravenous injection) and PO (gavage) groups. The administration dosage of each compound was 3 mg/kg for the IV group and […] for the PO group.

Data set [3] is described as follows: Solid stability test, influence factors (high temperature, high humidity). The class given is physicochemical. The protocol: The sample placed under a high temperature condition was sealed and left to stand in a stability test chamber at 60° C. After 10 days, the sample was taken and tested for solid purity and crystal form. The sample placed under a high humidity condition was left to stand at room temperature and 92.5% RH humidity (the mouth of the sample bottle was wrapped with a layer of sealing film and 15˜20 small holes were evenly punched in the sealing film), and the samples were taken and tested for solid purity and crystal form after 5 days/10 days, respectively.

A short description of data set [4]: Accelerated stability test of solid. In kind it is physicochemical. As to conditions: for Purity: HPLC area purity. The text has this: Samples were respectively taken at 1 month, 2 months and 3 months to test the solid chemical purity (HPLC area purity) and crystal form.
[5] abbreviates: PO @ 3 mpk, cassette, brain, 2 h.
[6] abbreviates: mouse, plasma, 1 mg/kg, IV @ 1 mpk, cassette, male CD-1 mice, read-out: Apparent Distribution Volume Vd.
Setting [7] is: mouse, plasma, 1 mg/kg, IV @ 1 mpk, cassette, male CD-1 mice, read-out: Area under Curve AUC0-inf.
Where [8] appears, read: mouse, plasma, 1 mg/kg, IV @ 1 mpk, cassette, male CD-1 mice, read-out: Half-life T1/2 (converted).
Setting [9] is: mouse, plasma, 1 mg/kg, IV @ 1 mpk, cassette, male CD-1 mice, read-out: Initial Concentration C0.
Where [10] appears, read: mouse, plasma, 3 mg/kg, PO @ 3 mpk vs IV @ 1 mpk, cassette, male CD-1 mice, read-out: Bioavailability F %.
Setting [11] is: mouse, plasma, 3 mg/kg, PO @ 3 mpk, cassette, male CD-1 mice, read-out: Area under Curve AUC0-inf.
Where [12] appears, read: mouse, plasma, 3 mg/kg, PO @ 3 mpk, cassette, male CD-1 mice, read-out: Peak Concentration Cmax.
[13] abbreviates: mouse, plasma, 3 mg/kg, PO @ 3 mpk, cassette, male CD-1 mice, read-out: Time to Peak Tmax.
Setting [14] is: male, CD-1, mouse, in vivo, iv, 1 mg/kg.
Setting [15] is: male, CD-1, mouse, in vivo, po, 3 mg/kg.
Setting [16] is: Room temperature/92.5% RH, 5 days.
The mark [17] stands for this setting: Room temperature/92.5% RH, 10 days.

Take `C[C@H]1CNC(=O)c2cnn3ccc(nc23)N[C@H](C)c2cc(F)ccc2O1` [TPX-0005]: the “Drug Concentration in Cerebrospinal Fluid at 0.5 h” value in data set [1] (PO @ 3 mpk, cassette, CSF) is given as 8 nmol/kg. Besides, in data set [1] (PO @ 3 mpk, cassette, brain), the “Drug Concentration in Brain at 0.5 h” value was 50 nmol/kg. Besides, the “Drug Concentration in Brain at 2 h” value in data set [1] (setting [5]) was 41 nmol/kg. For the same compound, in data set [1] (setting [6]), the Vd is 2.63 L/kg. Further, the figures for the AUC(0-inf) in data set [1] (setting [7]) and in data set [1] (setting [11]) were 2.86 µM·h and 5.49 µM·h, respectively. Besides, in data set [1] (setting [8]), the half-life is 221 min. For the same compound, the C0 in data set [1] (setting [9]) was found to be 2250 nM. The bioavailability in data set [1] (setting [10]) was 64%. In addition, the Cmax in data set [1] (setting [12]) came to 1540 nM. Also, the Tmax in data set [1] (setting [13]) came to 45 min.

`O=C(Nc1cnn2ccc(N3CCC[C@@H]3c3cc(F)ccc3F)nc12)N1CC[C@H](O)C1` [LOXO-101, Larotrectinib]: the bioavailability in data set [2] was found to be 28%; in data set [1] (setting [10]), 51%. The “Drug Concentration in Cerebrospinal Fluid at 0.5 h” value in data set [1] (PO @ 3 mpk, cassette, CSF) is 15 nmol/kg. The “Drug Concentration in Cerebrospinal Fluid at 2 h” value in data set [1] (PO @ 3 mpk, cassette, CSF, 2 h) came out at 3 nmol/kg. Also, the “Drug Concentration in Brain at 0.5 h” value in data set [1] (PO @ 3 mpk, cassette, brain) is given as 40 nmol/kg. Moreover, the “Drug Concentration in Brain at 2 h” value in data set [1] (setting [5]) was 20 nmol/kg. The Vd in data set [1] (setting [6]) stood at 1.57 L/kg. Also, the AUC(0-inf) in data set [1] (setting [7]) amounted to 1.72 µM·h; in data set [1] (setting [11]), 2.72 µM·h. Moreover, in data set [1] (setting [8]), the half-life is 72.6 min. The C0 in data set [1] (setting [9]) was 2380 nM. Besides, the Cmax in data set [1] (setting [12]) is 1350 nM. Further, the time of peak concentration (Tmax) in data set [1] (setting [13]) came out at 30 min.

On to `C[C@@H]1CCc2ncc(F)cc2[C@H]2CCCN2c2ccn3ncc(c3n2)C(=O)N1` [LOXO-195, reference compound], for which the bioavailability in data set [2] came to 74%.

`CN1CCN(c2ccc(C(=O)Nc3n[nH]c4ccc(Cc5cc(F)cc(F)c5)cc34)c(NC3CCOCC3)c2)CC1` [RXDX-101, Entrectinib]: in data set [1] (setting [14]), the AUC(0-inf) was found to be 3.77 µM·h, the C0 amounted to 2810 nM, the Vd was 1.24 L/kg and the half-life was 116 min. For the same compound, in data set [1] (setting [15]), the AUC(0-inf) worked out at 3.26 µM·h, the Cmax came out at 586 nM, the Tmax was determined as 45 min and the bioavailability amounted to 23%. In addition, the “Drug Concentration in Brain at 2 h” value in data set [1] (male, CD-1, mouse, in vivo, po, 3 mg/kg, 2 h) is 30 nmol/kg.

For `O=C1NC2(CC2)COc2ncc(F)cc2[C@H]2CCON2c2ccn3ncc1c3n2`, the “Test Results Purity” value in data set [3] (60° C, sealed, 10 days) stood at 100.0%; in data set [3] (setting [16]) it was 100.0%; in data set [3] (setting [17]), 100.0%. Moreover, the “Test Results Crystal Form” value in data set [3] (60° C, sealed, 10 days, XRPD) is recorded as “Crystal Form C”; in data set [3] (setting [16]) it was “Crystal Form C”; in data set [3] (setting [17]), “Crystal Form C”. For the same compound, the “Test Results Relative Purity*” value in data set [3] (60° C, sealed, 10 days, purity of stability sample/purity of starting sample x100%) stood at 100.0%; in data set [3] (setting [16]), 100.0%; in data set [3] (setting [17]), 100.0%. Besides, the “Relative Purity*” value in data set [4] (40° C./75% RH, 1 month) amounted to 100.0; in data set [4] (40° C./75% RH, 2 months), 100.0; in data set [4] (40° C./75% RH, 3 months), 100.0; in data set [4] (60° C./75% RH, 1 month), 99.9; in data set [4] (60° C./75% RH, 2 months) it was 100.0; in data set [4] (60° C./75% RH, 3 months) it was 100.0. Further, the Purity in data set [4] (40° C./75% RH, 1 month) worked out at 100.0; in data set [4] (40° C./75% RH, 2 months), 100.0; in data set [4] (40° C./75% RH, 3 months), 100.0; in data set [4] (60° C./75% RH, 1 month) it was 99.9; in data set [4] (60° C./75% RH, 2 months), 100.0; in data set [4] (60° C./75% RH, 3 months), 100.0.
